Experimental data taken from patent US7514432B2, “Compounds and methods of treating cell proliferative diseases, retinopathies and arthritis” (Exonhit Therapeutics SA, priority 2003, dated 2009).

Experiments:
HMEC1 = test: Cell viability assay (MTT), HMEC1; assay type: cell-based, Human; settings: MTT, 10% FBS, 6-day treatment, 1% DMSO
How it was run: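 HMEC1 cells seeded 24 h before dosing, then exposed to 0–200 μM compound (11 concentrations) in medium with 10% FBS and 1% DMSO final, refed every 3 days. Viability read on day 6 by MTT (0.5 mg/ml, 1–5 h at 37 °C), absorbance 550 nm; IC50 from dose-response curves, mean±SEM of 1–8 experiments.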

HCT116 = test: Cell viability assay (MTT), HCT116; assay type: cell-based, human; settings: 1% DMSO
How it was run: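 Cells seeded 24 h before treatment with 0–200 μM compound (11 concentrations, 1% DMSO final) in 10% or 0.5% FBS medium; exposure 16 h, 3 or 6 days, fed every 3 days in 6-day runs. MTT 0.5 mg/ml read at 550 nm; IC50 from dose-response curves, mean±SEM.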

NIH 3T3 = test: Cell viability assay (MTT), NIH 3T3; assay type: cell-based, mouse; settings: Mus musculus, 10% FBS, 1% DMSO
Method: (§1) Table 12: 6-day cell viability assay (MTT) in the presence of 10% Fetal Bovine Serum and 1% DMSO, in HMEC1, HCT116, MDA-MB-231, MCF7 and NIH3T3 cell lines. 3 10^3 to 15 10^3 cells were seeded in 48-well plates in growth medium containing 10% FBS, with or without various concentrations of test compounds. Cell cultures were fed every 3 days with the appropriate media. Cell viability was determined on day 6. Data were analyzed and IC50s were calculated from dose-response curves using GraphPad Prism. Results summarized in the tables are mean±SEM of 1 to 8 independent experiments.
(§2) Table 15: 16-hour cell viability assay (MTT) in the presence of 10% Fetal Bovine Serum and 1% DMSO, in HCT116, MDA-MB-231, NIH3T3, HepG2 and primary hepatocytes. 5 10^4 to 10 10^4 cells were seeded in 48-well plates in growth medium containing 10% FBS, with or without various concentrations of test compounds. Data were analyzed and IC50s were calculated from dose-reponse curves using GraphPad Prism. Results summarized in the tables are mean±SEM of 1 to 2 independent experiments.
(§3) In order to determine a compound's effect on cell viability, microculture tetrazolium assays (MTT) were performed as described by Carmichael et al. (1996) with modifications. Four human tumoral cell lines, namely HCT116 colon adenocarcinoma, H460 lung carcinoma, MCF-7 and MDA-MB-231 breast carcinoma cell lines, DLD1 colorectal adenocarcinoma, HeLa adenocarcinoma, HepG2 hepatocellular carcinoma. 3 immortalized but non tumorigenic cell lines, namely NIH3T3 mouse fibroblasts (American Type Culture Collection) and primary hepatocytes (Biopredic international), cultured according to their recommendations together with Human Microvasculature Endothelial Cell line HMEC1 (National Center for Infectious Diseases). Briefly, cells were seeded in 48-well plates 24 hours before drug addition. Cells were treated with 0 to 200 μM (11 concentrations) of compound solubilized in DMSO, adjusting the final concentration of DMSO to 1% in the well. 16 hours, and three or six days after treatment, 0.5 mg/ml MTT (Sigma) was added to the medium and cells were incubated for 1-5 hours at 37° C. before solubilization of formazan crystals in 100% DMSO. Absorbance was measured using a spectrophotometer at a wavelength of 550 nm. Data was analyzed using the GraphPad Prism software (GraphPad Software, Inc.), and IC50 (dose leading to 50% cell death) was calculated from the dose-response curves.

NIH3T3 = test: Boyden chamber migration assay, NIH3T3; assay type: cell-based, mouse; settings: FBS as chemoattractant; 16 hours
Method: (§4) FIG. 4: Migration assays. (A) Wound healing assay in REF cells. 7.6 10^4 cells were plated on coverslips 48 hours before the experiment. The cells were pre-treated for 30 min. with the compounds, and then a scrape was done using a pipette tip. The scraped coverslips in treatment medium were put under a thermostated microscope coupled to a video camera. Movies were analyzed as described in material and methods, and velocity and total distance covered by the cells were evaluated. Bar graphs represent the mean±SEM of 2 to 4 experiments. (B) Boyden chamber migration assay in HMEC1, NIH3T3 and MDA-MB-231 cells. 5 10^4 to 7.5 10^4 Cells, resuspended in culture medium with or without FBS and with different compound concentrations, were seeded in the upper Boyden blind well on top of 8 μm pore-sized filters. The ability of the cells to migrate through the filter was assayed in the absence or presence of FBS in the lower Boyden chamber. After 16 hours incubation, the medium was removed and replaced with calcein-AM containing medium. After labeling, cells were washed with HBSS and fluorescence was read in a fluorescence plate reader. Fluorescence values were normalized against the fluorescence obtained for the 1% DMSO control. The data plotted are the means±SEM of 2 to 4 independent experiments.
(§5) An essential characteristic of malignant cells is their ability to migrate, invade host tissues and to produce metastases. In order to evaluate the capacity of one compound to affect the ability of tumoral cells to migrate, migration assays were performed using highly invasive tumoral cells MDA-MB-231, endothelial cells HMEC1 or fibroblastic cells NIH3T3. This assay was performed using Falcon HTS Fluoroblock inserts. Culture medium containing Fetal Bovine Serum (FBS; which is used as a chemoattractant) was added to the plate wells and 2 10^4 to 7.5 10^4 cells resuspended in medium without FBS and with 0.1% BSA were added to each insert well. The compound of interest was added to the medium in both the upper and the lower chambers. Plates were incubated for 16 hours at 37° C. Following incubation, the medium was removed from the upper chamber and the entire insert plate was transferred to a second 24-well plate containing 4 μg/ml Calcein-AM™ in medium containing 0.1% BSA. The plates were incubated for one hour at 37° C., rinsed with Hanks Buffered Saline (HBSS). Fluorescence data were collected using Fluoroskan Ascent FL fluorescence plate reader at an excitation wavelength (Ex) of 485 nm and emission wavelength (Em) of 517 nm. Only those labelled cells that passed through the Matrigel layer and the membrane were detected. Data were analyzed using the GraphPad Prism software and IM50s (dose at which 50% inhibition of cell migration is observed) were calculated.

MDA-MB-231 [1] = test: Boyden chamber migration assay, MDA-MB-231; assay type: cell-based, human; settings: FBS as chemoattractant; 16 hours
Method: as §4, §5

MDA-MB-231 [2] = test: Cell viability assay (MTT), MDA-MB-231; assay type: cell-based, human; settings: Homo sapiens, 1% DMSO
Method: as §1
Table 13: 6-day cell viability assay (MTT) in the presence of 0.5% Fetal Bovine Serum and 1% DMSO, in HCT116 and MDA-MB-231 cell lines. 7.5 10^4 to 15 10^4 cells were seeded in 48-well plates in growth medium containing 10% FBS, with or without various concentrations of test compounds. Cell cultures were fed every 3 days with the appropriate media. Cell viability was determined on day 6. Data were analyzed and IC50s were calculated from dose-response curves using GraphPad Prism. Results summarized in the tables are mean±SEM of 1 to 2 independent experiments.
(§6) Table 14: 3-day cell viability assay (MTT) in the presence of 10% Fetal Bovine Serum and 1% DMSO, in DLD1, HCT116, MDA-MB-231, MCF7 and HeLa cells. 7.5 10^3 to 1.5 10^4 cells were seeded in 48-well plates in growth medium containing 10% FBS, with or without various concentrations of test compounds. Data were analyzed and IC50s were calculated from dose-response curves using GraphPad Prism. Results summarized in the tables are mean±SEM of 1 to 7 independent experiments.
as §2, §3

HCT116 cells = test: Anchorage-independent cell growth assay in soft agar; assay type: cell-based, human; settings: 7 days; for IC50: Homo sapiens, HCT-116, 168 h, HCT116, 0.3% agar
Method: FIG. 3: Anchorage-independent growth assay in soft agar. 5 10^3 cells were seeded in 24-well plates in 0.3% agar-containing medium supplemented with the designated amount of compounds. After 7 days of incubation at 37° C., pictures of each well were taken and analyzed using the ImageJ image analysis software. In particular, clone size and number were calculated. The data were analyzed using GraphPad Prism, and IC50 was calculated. […] (A) Typical dose-response curves obtained for clone size and number. (B) Bar graph displaying the IC50s calculated for each compound.
In order to evaluate the effect of one compound on the capacity of tumour cells to grow without anchorage, HCT116 cells were seeded in soft agar. In contrast to microplate assays which average the drug's effects over an entire cell population, clonogenic assays offer the possibility of distinguishing cytotoxic agents (i.e., decreased colony number) from cytostatic agents (i.e., decreased colony size without decreased colony number; Murphy M. J. et al., 1996). Briefly, 5 10^3 HCT116 cells were resuspended in 300 μl of complete medium containing 0.3% soft-agar (Difco) and different concentrations of compound (8 concentrations ranging from 0 to 30 μM). Cells were then poured on a solidified layer of medium containing 0.5% of soft agar plus the compound at the same concentration as in the upper layer. Cells were incubated for 7 days at 37° C. before pictures of each well were taken using a phase contrast microscope (Nikon) and a digital camera (Nikon Coolpix 990). Pictures were subsequently analyzed using free image analysis software from the NIH (ImageJ) allowing determination of clone size and number.
Data were analyzed using the GraphPad Prism software, and IC50 (dose leading to a 50% decrease of clone size or number) was calculated from dose-response curves.

MCF7 = test: Cell viability assay (MTT), MCF7; assay type: cell-based; settings: Homo sapiens, MCF7, 72 h, 10% FBS, 3-day treatment, 1% DMSO
Method: as §1, §6, §3

DLD1 = test: Cell viability assay (MTT), DLD1; assay type: cell-based; settings: Homo sapiens, DLD-1, 72 h, 10% FBS, 3-day treatment, 1% DMSO
Method: as §6, §3

HeLa = test: Cell viability assay (MTT), HeLa; assay type: cell-based; settings: Homo sapiens, 72 h, 10% FBS, 3-day treatment, 1% DMSO
Method: as §6, §3

HepG2 = test: Cell viability assay (MTT), HepG2; assay type: cell-based; settings: Homo sapiens, 10% FBS, 16-hours treatment, 1% DMSO
Method: as §2, §3

Primary Hepatocytes = test: Cell viability assay (MTT), primary hepatocytes; assay type: cell-based; settings: Hepatocyte, 10% FBS, 16-hours treatment, 1% DMSO
Method: as §2, §3

[3] = system: Salmonella typhimurium TA 98 and TA 100 strains; test: Screening Ames test; settings: with and without S9 mix; 10 to 5000 μg per plate
Description: The objective of this study was to evaluate the potential of the test items to induce reverse mutation in Salmonella Typhimurium (TA 98 and TA 100 strains). The bacterial reverse mutation test is able to identify substances that cause point mutations, by substitution, addition or deletion of one or a few DNA base-pairs. Mutagenic substances can induce reversion in histidine deficient strains which are then able to grow and form colonies in a histidine-limited medium, while non-reverted cannot. This test is performed in the absence and presence of a rat liver metabolising system (S9 mix). Three known mutagens are used to check sensitivity of test system: sodium azide, 2-nitrofluorene and 2-anthramine.
The dose levels per plate were of 10 to 5000 μg. A preliminary toxicity test was performed followed by the mutagenecity test per se.

[4] = Homo sapiens, HCT-116, 144 h, 0.5% FBS, 6-day treatment
[5] = Homo sapiens, HCT-116, 144 h, 10% FBS, 6-day treatment
[6] = MDA-MB-231, 144 h, 0.5% FBS, 6-day treatment, read-out: IC50 (μM), MDA-MB-231
[7] = MDA-MB-231, 144 h, 10% FBS, 6-day treatment, read-out: IC50 μM, MDA-MB-231

| IC50 (MDA-MB-231 [2]; [7]) [µM] | IC50 (HCT116 cells) [µM] | SMILES | IC50 (HMEC1) [µM] | IC50 (HCT116; 10% FBS, 6-day treatment) [µM] | IC50 (NIH 3T3; NIH3T3, 144 h, 6-day treatment) [µM] | IC50 (HMEC1; Homo sapiens, HMEC-1, 144 h) [µM] | IC50 (HCT116; [4]) [µM] | IC50 (HCT116; [5]) [µM] | IC50 (MDA-MB-231 [2]; [6]) [µM] | further results |
| --- | --- | --- | --- | --- | --- | --- | --- | --- | --- | --- |
| – | – | CN1CCN(Cc2cc(=O)c(OCCCCCSc3ccnc4cc(C(F)(F)F)ccc34)co2)CC1 [EHT 7365, 2-(4-Methyl-piperazin-1-ylmethyl)-5-[5-(7-trifluoromethyl-quinolin-4-ylsulfanyl)-pentyloxy]-4H-pyran-4-one] | 8.3 | 5.4 | 6.5 | – | – | – | – | IC50 (NIH3T3): 6.1 ± 1.1 µM; IC50 (MDA-MB-231 [1]): 3.9 ± 0.8 µM |
| 1.3 | 5.8 ± 1 | NC(=O)c1nnn(Cc2cc(Cl)c(C(=O)c3ccc(Cl)cc3)c(Cl)c2)c1N [CAI, carboxyamidotriazole, reference compound] | – | – | 5.8 | 28.4 | 0.6 | 1 | 0.4 | IC50 (HCT116; Homo sapiens, HCT-116, 16 h, 10% FBS, 16-hours treatment): 44.1 µM; IC50 (MDA-MB-231 [2]; MDA-MB-231, 16 h, 10% FBS, 16-hours treatment, read-out: IC50 μM, MDA-MB-231): > 50 µM; IC50 (NIH 3T3; NIH3T3, 16 h, 16-hours treatment): 95.9 µM; mode of action: clone size versus clone number (HCT116 cells; soft agar): preferentially affect clone size as compared to clone number |
| 11.5 | 5.4 ± 1.2 | O=c1cc(COC2CCCCO2)occ1OCCCCCSc1ccnc2cc(C(F)(F)F)ccc12 (stereo not drawn) [EHT 9376, 2-(Tetrahydro-pyran-2-yloxymethyl)-5-[5-(7-trifluoromethyl-quinolin-4-ylsulfanyl)-pentyloxy]-4H-pyran-4-one] | 8.2 | – | 8.1 | < 10 | – | – | – | – |

| SMILES | IC50 (MDA-MB-231 [2]; [7]) [µM] | IC50 (HCT116 cells) [µM] | IC50 (HMEC1) [µM] | IC50 (HCT116; 10% FBS, 6-day treatment) [µM] | IC50 (NIH 3T3; NIH3T3, 144 h, 6-day treatment) [µM] | IC50 (HMEC1; Homo sapiens, HMEC-1, 144 h) [µM] | IC50 (HCT116; [4]) [µM] | IC50 (HCT116; [5]) [µM] | IC50 (MDA-MB-231 [2]; [6]) [µM] | further results |
| --- | --- | --- | --- | --- | --- | --- | --- | --- | --- | --- |
| O=c1cc(CN2CCOCC2)occ1OCc1cccc(CSc2ccnc3cc(C(F)(F)F)ccc23)c1 [EHT 2725, 5-((3-((7-(Trifluoromethyl)quinolin-4-ylthio)methyl)phenyl)methoxy)-2-(morpholinomethyl)-4H-pyran-4-one] | 9.3 | – | – | 2.7 | 24.8 | 28.1 | 5.4 | < 4 | 6.4 | IC50 (HCT116; Homo sapiens, HCT-116, 72 h, 10% FBS, 3-day treatment): 9.9 µM; IC50 (MDA-MB-231 [2]; MDA-MB-231, 72 h, 10% FBS, 3-day treatment, read-out: IC50 μM, MDA-MB-231): 19.5 µM; IC50 (MCF7): 7.3 µM; IC50 (DLD1): 12.2 µM; IC50 (HeLa): 20.9 µM; IC50 (HepG2): 45.2 µM; IC50 (Primary Hepatocytes): > 50 µM; mutagenic activity [3]: did not show any mutagenic activity |
